In ChEMBL document CHEMBL2169806, “Design, synthesis, and pharmacological evaluation of N-acylhydrazones and novel conformationally constrained compounds as selective and potent orally active phosphodiesterase-4 inhibitors” (J Med Chem, 2012):
The source made the active and inactive calls. No cut-off for these calls is given here.

Columns and labels:
Mus musculus [1] = assay: Antiinflammatory activity in A/J mouse assessed as inhibition of LPS-induced airway resistance provoked by methacholine at 45 umol/kg, po administered 1 hr prior to LPS-challenge measured after 18 hrs relative to vehicle-treated control; type: functional
Mus musculus [2] = assay: Antiinflammatory activity in A/J mouse lung assessed as inhibition of LPS-induced TNFalpha production at 45 umol/kg, po administered 1 hr prior to LPS-challenge measured after 18 hrs relative to vehicle-treated control; type: functional
Mus musculus [3] = assay: Antiinflammatory activity in A/J mouse assessed as inhibition of neutrophil accumulation in bronchoalveolar space at 45 umol/kg, po administered 1 hr prior to LPS-challenge measured after 18 hrs relative to vehicle-treated control; type: functional; conditions: Lung
Mus musculus [4] = assay: Antiinflammatory activity in A/J mouse assessed as inhibition of leukocyte accumulation in bronchoalveolar space at 45 umol/kg, po administered 1 hr prior to LPS-challenge measured after 18 hrs relative to vehicle-treated control; type: functional; conditions: Lung
PBMC = assay: Antiinflammatory activity in human PBMC assessed as inhibition of LPS-induced TNFalpha production after 24 hrs by ELISA; type: functional, cell-based
Mus musculus [5] = assay: Antiinflammatory activity in A/J mouse lung assessed as inhibition of LPS-induced IL6 production at 45 umol/kg, po administered 1 hr prior to LPS-challenge measured after 18 hrs relative to vehicle-treated control; type: functional
Mus musculus [6] = assay: Antiinflammatory activity in A/J mouse assessed as inhibition of LPS-induced airway elastance provoked by methacholine at 45 umol/kg, po administered 1 hr prior to LPS-challenge measured after 18 hrs relative to vehicle-treated control; type: functional
Mus musculus [7] = assay: Antiinflammatory activity in A/J mouse assessed as inhibition of eosinophils accumulation in bronchoalveolar space at 45 umol/kg, po administered 1 hr prior to LPS-challenge measured after 18 hrs relative to vehicle-treated control; type: functional, organism-based; conditions: Lung
Mus musculus [8] = assay: Antiinflammatory activity in A/J mouse assessed as inhibition of mononuclear cell accumulation in bronchoalveolar space at 45 umol/kg, po administered 1 hr prior to LPS-challenge measured after 18 hrs relative to vehicle-treated control; type: functional, organism-based; conditions: Lung
Mus musculus [9] = assay: Proemetic activity in A/J mouse assessed as reversal of xylazine/katamine-induced anesthesia at 1 to 50 umol/kg, sc administered 30 mins prior xylazine/ketamine-administration; type: ADME, organism-based; conditions: in vivo, 0.5 h
[10] = Inhibition of bovine PDE4 using [3H]cAMP as substrate; parameters: species or system Bos taurus

**Q.** With COc1ccc(C2CNC(=O)C2)cc1OC1CCCC1 (stereo unspecified) [ROLIPRAM] as the compound, how does the inhibition in vivo at 45 µmol/kg (Mus musculus [1]) read?
**A.** 95%

**Q.** What about the inhibition in vivo at 45 µmol/kg (Mus musculus [2]) of the same compound?
**A.** 69%

**Q.** And the inhibition in vivo at 45 µmol/kg (Mus musculus [3])?
**A.** 70%

**Q.** What about the inhibition in vivo at 45 µmol/kg (Mus musculus [4]) of the same compound?
**A.** 70%

**Q.** What about the EC50 (PBMC) of the same compound?
**A.** 130 nM

**Q.** What about the inhibition in vivo at 45 µmol/kg (Mus musculus [5]) of the same compound?
**A.** 54%

**Q.** And the inhibition in vivo at 45 µmol/kg (Mus musculus [6])?
**A.** 96%

**Q.** And the inhibition (Mus musculus [7])?
**A.** Active

**Q.** What about the inhibition (Mus musculus [8]) of the same compound?
**A.** Active

**Q.** And the Activity (Mus musculus [9])?
**A.** Toxic

**Q.** And the IC50 [10]?
**A.** 800 nM
